Laboratory results published in article PMC5485019 (2017).

How the values were obtained:
[1] = test system: F10T (DNA, hairpin, hexaethylene glycol (HEG) linker between nucleotides 10 and 11) TATAGCTATATATAGCTATA; test: FRET melting; details: 10 mM KCl, 90 mM LiCl, 10 mM Li cacodylate, 200 nM DNA
[2] = test system: FMycT (F-Myc-T) (DNA, G4) TTGAGGGTGGGTAGGGTGGGTAA; test: FRET melting; details: 1 mM KCl, 99 mM LiCl, 10 mM Li cacodylate, 200 nM DNA
[3] = test system: F21T (DNA, G4) GGGTTAGGGTTAGGGTTAGGG; test: FRET melting; details: 10 mM Li cacodylate, 1 μM ligand, 200 nM DNA
[4] = test system: telo23 (DNA, G4) TAGGGTTAGGGTTAGGGTTAGGG; test: ITC; details: K+ (100 mM potassium phosphate); pH 7.4, 25 °C (298 K); 15 µM DNA; bracket = 68.3 % confidence interval
[5] = test system: telo23 (DNA, G4) TAGGGTTAGGGTTAGGGTTAGGG; test: CD titration; details: Na+ (100 mM sodium phosphate); pH 7.4 (main text 7.2); 4.22 µM DNA; antiparallel shifts towards hybrid
[6] = test system: F21T (DNA, G4) GGGTTAGGGTTAGGGTTAGGG; test: FRET melting; details: 10 mM Li cacodylate, 200 nM DNA
[7] = test system: F10T (DNA, hairpin, hexaethylene glycol (HEG, (-CH2CH2O-)6) linker between nucleotides 10 and 11) TATAGCTATATATAGCTATA; test: FRET melting; details: 10 mM KCl, 90 mM LiCl; 10 mM Li cacodylate; 1 μM ligand, 200 nM DNA
[8] = test system: FMycT (F-Myc-T) (DNA, G4) TTGAGGGTGGGTAGGGTGGGTAA; test: FRET melting; details: 1 mM KCl, 99 mM LiCl; 10 mM Li cacodylate; 1 μM ligand, 200 nM DNA
[9] = 10 mM KCl, 90 mM LiCl, 1 μM ligand
[10] = 100 mM NaCl, 1 μM ligand, no stabilization up to 10 μM
[11] = 100 mM NaCl, no stabilization up to 10 μM
[12] = 1 µM ligand, no stabilization up to 10 µM

| ΔT max ([3]; 10 mM KCl, 90 mM LiCl) [°C] | K a [4] | ΔT max [7] [°C] | ΔT max [8] [°C] | ΔT max [3, 11] [°C] | further results | Structure (SMILES) |
| --- | --- | --- | --- | --- | --- | --- |
| 2.3±0.5 | – | – | – | – | ΔT max ([1]; 1 μM ligand): 1.1±0.1 °C; ΔT max ([2]; 1 μM ligand): 3.9±0.2 °C; ΔT max ([3]; 100 mM NaCl): −1.5±0.2 °C | CN(C)CCCN1C(=O)c2ccc3c4c(ccc(c24)C1=O)C(=O)N(CCCN(C)C)C3=O |
| – | 1.03 (0.865,1.23) × 10^6 M^-1 | 0.3±0.2 | 0.5±0.3 | – | binding [5]: yes; ΔT max [6, 9]: 9.8±0.6 °C; ΔT max [6, 10]: −2.3±0.3 °C | CN1CCN(CCCN2C(=O)c3ccc4c5c(ccc(c35)C2=O)C(=O)N(CCCN2CCN(C)CC2)C4=O)CC1 |
| – | – | – | – | – | ∆Tmax [6, 9]: 27.4 ± 0.4 °C | C[n+]1ccc(-c2c3nc(c(-c4cc[n+](C)cc4)c4ccc([nH]4)c(-c4cc[n+](C)cc4)c4nc(c(-c5cc[n+](C)cc5)c5ccc2[nH]5)C=C4)C=C3)cc1 |
| 3.7±0.3 | 2.16 (1.85,2.52) × 10^6 M^-1 | 0.1±0.1 | 1.8±0.8 | – | ΔT max ([3]; 100 mM NaCl): −0.5±0.4 °C | Cn1cc[n+](CCCN2C(=O)c3ccc4c5c(ccc(c35)C2=O)C(=O)N(CCC[n+]2ccn(C)c2)C4=O)c1 |
| 1.3±0.4 | – | 0.4±0.2 | 1±0.4 | −0.6±0.5 | – | Cn1cc[n+](CCN2C(=O)c3ccc4c5c(ccc(c35)C2=O)C(=O)N(CC[n+]2ccn(C)c2)C4=O)c1 |
| 2.9±0.3 | – | 0.1±0.2 | 0.9±0.7 | −1.5±0.4 | – | Cn1cc[n+](C[C@H]2O[C@@H](OCCN3C(=O)c4ccc5c6c(ccc(c46)C3=O)C(=O)N(CCO[C@@H]3O[C@H](C[n+]4ccn(C)c4)[C@@H](O)[C@H](O)[C@H]3O)C5=O)[C@H](O)[C@@H](O)[C@@H]2O)c1 |
| – | 1.30 (1.02,1.64) × 10^6 M^-1 | – | – | – | ΔT max ([1]; 1 µM ligand, 3.2 °C at 10 µM): −0.1±0.1 °C; ΔT max ([2]; 1 µM ligand, 10.5 °C at 10 µM): −0.3±0.7 °C; binding [5]: yes; ΔT max [6, 9]: 10.1±0.3 °C; ΔT max [6, 10]: −1.4±0.3 °C | Cn1cc[n+](C[C@H]2O[C@H](OCCN3C(=O)c4ccc5c6c(ccc(c46)C3=O)C(=O)N(CCO[C@H]3O[C@H](C[n+]4ccn(C)c4)[C@@H](O)[C@H](O)[C@@H]3O)C5=O)[C@@H](O)[C@@H](O)[C@@H]2O)c1 |
| – | – | – | – | −0.1±0.5 | ΔT max [1, 12]: 0.5±0.2 °C; ΔT max [2, 12]: −0.3±0.4 °C; ΔT max ([6]; 10 mM KCl, 90 mM LiCl, 1 µM ligand, no stabilization up to 10 µM): 0.4±0.1 °C | O=C1c2ccc3c4c(ccc(c24)C(=O)N1CCO[C@@H]1O[C@H](CO)[C@@H](O)[C@H](O)[C@H]1O)C(=O)N(CCO[C@@H]1O[C@H](CO)[C@@H](O)[C@H](O)[C@H]1O)C3=O |
